pIC50: −log10 of the molar value.

The experiment addresses T1, Tyrosine-protein phosphatase non-receptor type 1 (Homo sapiens, UniProt P18031).
T1 sequence (P18031 whole entry): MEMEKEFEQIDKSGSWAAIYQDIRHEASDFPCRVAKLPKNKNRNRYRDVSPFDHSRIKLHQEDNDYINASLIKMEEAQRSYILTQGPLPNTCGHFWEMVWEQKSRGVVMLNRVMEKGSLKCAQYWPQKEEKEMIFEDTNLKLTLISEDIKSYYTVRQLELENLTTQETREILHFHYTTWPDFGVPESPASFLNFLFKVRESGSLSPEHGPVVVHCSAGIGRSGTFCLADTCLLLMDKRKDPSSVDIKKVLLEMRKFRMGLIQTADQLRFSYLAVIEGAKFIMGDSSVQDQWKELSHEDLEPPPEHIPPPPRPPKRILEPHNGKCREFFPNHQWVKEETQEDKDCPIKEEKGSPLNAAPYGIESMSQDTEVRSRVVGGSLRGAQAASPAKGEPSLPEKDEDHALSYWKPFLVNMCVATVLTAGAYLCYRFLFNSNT
Briefly: Inhibition of recombinant human PTP1B assessed as hydrolysis of p-nitrophenyl phosphate after 30 mins.

Consider `COc1c(/C=C/C(=O)c2ccc(O)cc2)ccc(O)c1CC=C(C)C`, for which the pIC50 was 4.51.

Regarding `C=CC(C)(C)c1cc(/C=C/C(=O)c2ccc(OC)cc2)c(OC)cc1O`, the pIC50 is 4.93.

Take `C=CC(C)(C)c1cc(/C=C/C(=O)c2ccc(OC)cc2)c(OC)cc1OC(C)=O`: the pIC50 is 4.71.

For the compound `C=CC(C)(C)c1cc(/C=C/C(=O)c2ccc(O)cc2)c(OC)cc1OC(C)=O`, the negative-log IC50 (pIC50) is 4.76.

For the compound `C=CC(C)(C)c1cc(/C=C/C(=O)c2ccc(OC(C)=O)cc2)c(OC)cc1OC`, the pIC50 was 4.53.

For `C=CC(C)(C)c1cc(/C=C/C(=O)c2ccc(O)cc2)c(OC)cc1OC`, the pIC50 was 4.74.

With `C=CC(C)(C)c1cc(/C=C/C(=O)c2ccc(OC(C)=O)cc2)c(OC)cc1O`, the negative logarithm of the IC50 (pIC50) is 4.72.

As for `C=C(C)C(C)c1cc(/C=C/C(=O)c2ccc(O)cc2)c(OC)cc1O` (centres undefined), the pIC50 was 4.68.

For the compound `C=CC(C)(C)c1cc(/C=C/C(=O)c2ccc(OC)cc2)c(OC)cc1OC`, the negative logarithm of the IC50 (pIC50) is 4.70.

`C=CC(C)(C)c1cc(/C=C/C(=O)c2ccc(OC(C)=O)cc2)c(OC)cc1OC(C)=O`: the negative logarithm of the IC50 (pIC50) is less than 4.30.

As for `COc1cc(O)ccc1/C=C/C(=O)c1ccc(O)cc1` [ECHINATIN], the negative logarithm of the IC50 (pIC50) is less than 4.30.

For the compound `O=C(/C=C/c1ccc(O)cc1)c1ccc(O)cc1O` [ISOLIQUIRITIGENIN], the negative-log IC50 (pIC50) was less than 4.30.

Take `C=CC(C)(C)c1cc(/C=C/C(=O)c2ccc(O)cc2)c(OC)cc1O` [LICOAGROCHACONE A]: the pIC50 is 4.72.

As to `O=C1C[C@@H](c2ccc(O)cc2)Oc2cc(O)ccc21` [LIQUIRTIGENIN], the negative-log IC50 (pIC50) is less than 4.30.

For orientation: pIC50 means −log10 of the IC50, conventionally taken in molar units.

The values above are taken from ChEMBL document CHEMBL1155313, “Inhibitory effect of chalcones and their derivatives from Glycyrrhiza inflata on protein tyrosine phosphatase 1B” (Bioorg Med Chem Lett, 2009).
